Laboratory results published in PubChem BioAssay AID434955 (Southern Research Specialized Biocontainment Screening …, 2010).

Test system: M. tuberculosis H37Rv growth with meropenem, percent inhibition
Assay: beta-lactam sensitization of Mtb H37Rv, H37Rv (AID 434955)

SMILES | IC90
Cc1ccccc1OCC(=O)N/N=C/c1cccc(Oc2ccc([N+](=O)[O-])cc2[N+](=O)[O-])c1 | 5.4 µM
O=C(CN1CCC(O)(c2ccc3c(c2)OCO3)CC1)OC1CCCCC1 | 35.3 µM
CSc1ccc(/C=C/C(=O)NC23CC4CC(CC(C4)C2)C3)cc1 | 16.1 µM
O=C(Oc1c(-c2ccccc2)c(=O)n2c3c(cccc13)CC2)c1cccc([N+](=O)[O-])c1 | 62.3 µM
O=C(CCN1CCOCC1)c1ccc(N2CCCCC2)cc1 | 72.7 µM
COc1cccc(/C=N/NC(=O)NC23CC4CC(CC(C4)C2)C3)c1O | 26.8 µM
CCCCNC(=O)c1onc(CSc2ccc(F)c(F)c2)c1C(=O)O | 56.8 µM
O=C(NCC1COc2ccccc2O1)C1CCC(CNc2c(N3CCCCC3)c(=O)c2=O)CC1 (configuration not stated) | 26.7 µM
COc1ccccc1-c1cc(C(=O)Nc2c(C)n(C)n(-c3ccccc3)c2=O)no1 | 19.5 µM
NNC(=O)c1cccc(O)c1 | 73.9 µM
COc1ccc(NC(C)C(=O)N/N=C/c2ccc([N+](=O)[O-])s2)cc1 (configuration not stated) | 4.79 µM
CCOc1ccc(S(=O)(=O)N(C(=O)c2ccco2)c2cc3sc(=O)oc3c3ccccc23)cc1 | 46.9 µM
CC(C)C1CC(CCNCc2ccc(N(C)C)cc2)(c2ccccc2)CCO1 (configuration not stated) | 26.9 µM
c1ccc(-c2n[nH]c3c2CCC3)cc1 | 46.3 µM
Cc1ccc(-c2[nH][nH]c(=O)c(=O)c2N=Nc2ccccc2)cc1 | 86.2 µM
O=C(CC12CC3CC(CC(C3)C1)C2)NCc1ccc(F)cc1 | 10.4 µM
CCCCNC(=O)c1onc(CSc2ccccc2CC)c1C(=O)O | 23.7 µM
CCc1cc(C(=O)O)c(NC(=O)/C=C/c2ccc(OC)cc2)s1 | 59.7 µM
COc1ccc(-n2cc(-c3ccccc3)c3c(NN4CCOCC4)ncnc32)cc1 | 36.1 µM

SMILES | IC90
COc1cc2nc(N3CCN(C(=O)OCc4ccccc4)[C@H](C(=O)NC(C)(C)C)C3)nc(N)c2cc1OC | 84 µM
Cc1cccc(-n2nc([N+](=O)[O-])c(=NC3CCN(Cc4ccccc4)CC3)n2O)c1 | 30.5 µM
CN1c2ccccc2C(=O)NC1c1ccc([N+](=O)[O-])s1 (configuration not stated) | 33.3 µM
C/C(CC(=O)Nc1c(C)cc(C)cc1C)=N\NC(=O)c1cnccn1 | 17.4 µM
Cc1ccc(C(=O)N/C(=C\c2ccc(-c3ccc(Cl)cc3)o2)C(=O)NCCCN(C)C)cc1 | 23.7 µM
COc1ccc(/C=C/C(=O)N(C(C)C)C(C)C)cc1Br | 96.4 µM
CC(=O)Nc1ccc(Nc2ncc([N+](=O)[O-])c(Nc3ccc(NC(C)=O)cc3)n2)cc1 | 45.5 µM
COc1ccc(NC(=O)c2cc(C)nc3ccccc23)c(OC)c1 | 12.9 µM
CCN(CC)C(=O)C1CCCN(c2ccc([N+](=O)[O-])cc2/C=N/NC(=O)c2cccc(O)c2)C1 (configuration not stated) | 55.3 µM
Cc1ccccc1OCC(=O)Nc1ccccc1N1CCCCC1 | 13.5 µM
COCc1cc(=O)n2[nH]cc(-c3ccccc3)c2n1 | 15.5 µM
COc1ccc(C(=O)CN(C(=O)c2ccc(Cl)cc2)N2C(=O)c3ccccc3C2=O)cc1 | 22.4 µM
O=C(CCCCCN1C(=O)c2cccc([N+](=O)[O-])c2C1=O)Nc1ccccc1F | 44.1 µM
CCOC(=O)N1CCN(CC(=O)Nc2nnc(C(F)(F)F)s2)CC1 | 50.1 µM
Cc1nn(-c2ccccc2)c(N2CCCC2)c1/C=C1\N=C(c2ccc(F)cc2)OC1=O | 22.9 µM
Cc1c(OCc2ccc(C(=O)O)cc2)ccc2c(-c3ccccc3)cc(=O)oc12 | 2.09 µM
O=[N+]([O-])c1cc(C(F)(F)F)ccc1NCCc1c[nH]c2ccc(O)cc12 | 72.9 µM
CN(C)S(=O)(=O)c1ccc(C(=O)/C=C/c2cccnc2)cc1 | 12.1 µM
CCCCNC(=O)c1onc(CSc2ccccc2C)c1C(=O)O | 50.6 µM

SMILES | IC90
Cn1c(/C=N/c2nc3ccccc3[nH]2)nc2ccccc21 | 4.17 µM
Cc1ccc(S(=O)(=O)Nc2cccc3cccnc23)c([N+](=O)[O-])c1 | 4.7 µM
O=c1oc(-c2ccco2)nc2sc3c(c12)CCCCC3 | 38.5 µM
COc1ccc2c(c1)c(C(C)=O)c(C)n2-c1ccccc1 | 6.92 µM
CCOC(=O)c1nc(N2CCN(C(=O)OCC)CC2)c2c3c(sc2n1)CCCC3 | 40.9 µM
Cc1cc(C2C(=O)c3ccccc3C2=O)c(C)c(C)c1C | 16.4 µM
CN(C)CCCN(C(=O)/C=C/c1cccs1)c1nc2ccc(F)cc2s1 | 48.4 µM
Cn1nnnc1Sc1ncnc2scc(-c3ccc(C(F)(F)F)cc3)c12 | 15 µM
CCCCCCCN(C(=O)CCl)c1ccccc1C | 35.2 µM
Cc1ccc(C(=O)Nc2c(C)cc(C)c3cccnc23)cc1 | 10.5 µM
Cc1ccccc1NC(=O)/C(C#N)=C\c1cc(C)n(-c2ccc(C(=O)O)cc2)c1C | 51.1 µM
CC(C)(C)NCCCOc1ccc(Cl)cc1C(C)(C)C | 26.9 µM
Cc1nnnn1/C(=C\c1ccccc1)C(=O)OCC(=O)NC1CCCCC1 | 17.6 µM
O=C(CSc1nnc(-c2ccncc2)o1)c1cccc([N+](=O)[O-])c1 | 45.4 µM
CCn1cc(C(=O)O)c(=O)c2cc(F)c(N3CCN(C(=S)NC(=O)c4ccccc4C)CC3)cc21 | 16 µM
O=C1C(Cl)=C(N2CCCCCC2)C(=O)N1c1ccc(Br)cc1 | 19.4 µM
CCN(CC)c1ccc(CN2CCCCCC2)cc1 | 49.4 µM
C=C(C)C1Cc2c(C)nn(-c3cccc4ccccc34)c2C1 (configuration not stated) | 47.4 µM
CCOC(=O)c1ccc(C(=O)NNC(=O)C2CC=CCC2)cc1 (configuration not stated) | 40 µM
